Source: the NIST ThermoML archive (doi:10.1016/j.jct.2015.12.034)
± gives the expanded uncertainty stated by the source.

Assay: activity coefficient (dimensionless); of the first substance listed, at infinite dilution; xn = mol fraction of the nth substance listed
Conditions: 298.15 K; 238 kPa; Liquid; Chromatography; x1 = 0

Row | SMILES | activity coefficient
1 | CCCCCCCC [octane] + CC#N | 52.3 ± 4.5
2 | CCCCCCCC [octane] + CC(C)=O | 10.7 ± 0.9
3 | Cc1ccccc1 [toluene] + CC#N | 3.95 ± 0.34
4 | Cc1ccccc1 [toluene] + CC(C)=O | 2.01 ± 0.17
